Source: the supplement of paper PMC4862054

Assays:
Conditions in all cases: incubation time: 72 h
CAL-51 [1] = assay: normalised viability (% of control), CellTiter-Blue; higher = more viable cells (about 100 = DMSO control)
Description: (§1)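 DSRT, CellTiter-Blue viability, 72 h incubation. Signal is normalised to DMSO and benzethonium chloride controls. Value is the normalised response at dose 8.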

HDQ-P1 [2] = assay: as above
Description: as §1

CAL-120 [3] = assay: normalised viability (% of control), CellTiter-Blue; higher = more viable cells (100 = DMSO, 0 = benzethonium chloride kill control)
Method in brief: (§2)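 The reported figure is normalised viability at a single listed concentration of the series. Breast cancer cell lines (20 µl suspension) went onto 384-well plates holding compound in 5 µl medium for 72 h. CellTiter-Blue (2.5 µl, 2 h, 37 °C) was read by fluorescence at 560/590 nm, and each plate was scaled to vehicle at 100 and a positive kill control at 0.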

CAL-148 [4] = assay: as above
Method in brief: as §2

MDA-MB-231 [5] = assay: as above
Method in brief: as §2

MDA-MB-453 [6] = assay: as above
Method in brief: as §2

MDA-MB-468 [7] = assay: as above
Method in brief: as §2

SK-BR-3 [8] = assay: as above
Method in brief: as §2

BT-474 = assay: drug sensitivity score (DSS), CellTiter-Blue viability (DSS (AUC-based score)); higher = stronger viability inhibition; extreme values may be limits of the assay
Description: (§3)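 DSRT with the CellTiter-Blue (resazurin reduction) viability readout, fluorescence 560/590 nm, 72 h incubation. Plates were normalised to DMSO and benzethonium chloride controls. DSS is computed from the area under the fitted dose-response curve (5 or 9 concentrations).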

BT-549 = assay: as above
Description: as §3

CAL-120 [9] = assay: as above
Description: as §3

CAL-148 [10] = assay: as above
Description: as §3

CAL-51 [11] = assay: as above
Description: as §3

CAL-85-1 = assay: as above
Description: as §3

DU-4475 = assay: as above
Description: as §3

HCC1143 = assay: as above
Description: as §3

HCC1599 = assay: as above
Description: as §3

HCC1937 = assay: as above
Description: as §3

HDQ-P1 [12] = assay: as above
Description: as §3

Hs578T = assay: as above
Description: as §3

MDA-MB-231 [13] = assay: as above
Description: as §3

MDA-MB-436 = assay: as above
Description: as §3

MDA-MB-453 [14] = assay: as above
Description: as §3

MDA-MB-468 [15] = assay: as above
Description: as §3

MFM-223 = assay: as above
Description: as §3

SK-BR-3 [16] = assay: as above
Description: as §3

Row | Structure (SMILES) | normalised viability (CAL-51 [1]; 3000 nM) [%] | normalised viability (HDQ-P1 [2]; 3000 nM) [%] | normalised viability (CAL-120 [3]; 1 nM) [%] | normalised viability (CAL-148 [4]; 1 nM) [%] | normalised viability (MDA-MB-231 [5]; 1 nM) [%] | normalised viability (MDA-MB-453 [6]; 1 nM) [%] | normalised viability (MDA-MB-468 [7]; 1 nM) [%] | normalised viability (SK-BR-3 [8]; 1 nM) [%] | drug sensitivity score (BT-474) | drug sensitivity score (BT-549) | drug sensitivity score (CAL-120 [9]) | drug sensitivity score (CAL-148 [10]) | drug sensitivity score (CAL-51 [11]) | drug sensitivity score (CAL-85-1) | drug sensitivity score (DU-4475) | drug sensitivity score (HCC1143) | drug sensitivity score (HCC1599) | drug sensitivity score (HCC1937) | drug sensitivity score (HDQ-P1 [12]) | drug sensitivity score (Hs578T) | drug sensitivity score (MDA-MB-231 [13]) | drug sensitivity score (MDA-MB-436) | drug sensitivity score (MDA-MB-453 [14]) | drug sensitivity score (MDA-MB-468 [15]) | drug sensitivity score (MFM-223) | drug sensitivity score (SK-BR-3 [16]) | normalised viability (CAL-51 [1]; 300 nM) [%] | normalised viability (HDQ-P1 [2]; 300 nM) [%] | normalised viability (CAL-120 [3]; 0.1 nM) [%] | normalised viability (CAL-148 [4]; 0.1 nM) [%] | normalised viability (MDA-MB-231 [5]; 0.1 nM) [%] | normalised viability (MDA-MB-453 [6]; 0.1 nM) [%] | normalised viability (MDA-MB-468 [7]; 0.1 nM) [%] | normalised viability (SK-BR-3 [8]; 0.1 nM) [%]
1 | CN(C)C[C@@H]1CCn2cc(c3ccccc32)C2=C(C(=O)NC2=O)c2cn(c3ccccc23)CCO1 [Ruboxistaurin] | 70.4 | 74.2 | 120 | 126 | 92.5 | 98.5 | 96.8 | 99.3 | 6.23 | 3.74 | 1.65 | 3.06 | 4.59 | 0 | 6.32 | 0 | 3.54 | 6.14 | 3.47 | 1.19 | 4.1 | 10.7 | 4.14 | 6.34 | 6.81 | 6.94 |  |  |  |  |  |  |  | 
2 | CN1CCN(CCOc2cc(OC3CCOCC3)c3c(Nc4c(Cl)ccc5c4OCO5)ncnc3c2)CC1 [Saracatinib] | 45 | 20.3 | 82.4 | 89.8 | 85.5 | 105 | 104 | 91.5 | 5.44 | 5 | 4.64 | 1.9 | 8.13 | 9.72 | 0 | 0 | 0.195 | 0 | 11.5 | 0 | 7.77 | 0.375 | 4.51 | 4.05 | 0 | 3.37 |  |  |  |  |  |  |  | 
3 | Cn1cncc1[C@@](N)(c1ccc(Cl)cc1)c1ccc2c(c1)c(-c1cccc(Cl)c1)cc(=O)n2C [Tipifarnib] | 63.4 | 66.8 | 78 | 102 | 98.8 | 94.7 | 105 | 92.5 | 5.35 | 5.66 | 12.4 | 18.8 | 9.74 | 6.87 | 18.5 | 14.7 | 9.57 | 15.3 | 13.3 | 5.75 | 11.7 | 0 | 10.5 | 3.09 | 7.2 | 12.6 |  |  |  |  |  |  |  | 
4 | O=C1NC(=O)[C@@H](c2cn3c4c(cccc24)CCC3)[C@@H]1c1c[nH]c2ccccc12 [Tivantinib] |  |  |  |  |  |  |  |  | 1.07 | 4.05 | 4.4 | 1.69 | 2.15 | 4.04 | 1.35 | 0 | 0.607 | 8.31 | 0 | 2.65 | 1.91 | 7.87 | 6.08 | 1.21 | 0 | 2.61 | 98.3 | 90.7 | 90.1 | 110 | 111 | 101 | 110 | 95
